Active and inactive are the calls of the source. No cut-off for these calls is given here.
Experiments:
[1] = Binding affinity to Na+ ion assessed as induction of chemical shift at 5 mM by 1H-NMR spectroscopy
[2] = Binding affinity to Mg2+ ion at 25 uM in aqueous buffers by UV spectroscopy
[3] = Binding affinity to Na+ ion in acetonitrile at 12.5 uM assessed as induction of shift in the maximum absorbance wavelength by UV spectroscopy
[4] = Binding affinity to Mg2+ ion assessed as induction of chemical shift at 5 mM in presence of in presence of 25 mM magnesium 1H-NMR spectroscopy
[5] = Binding affinity to Mg2+ ion in acetonitrile assessed as induction of shift in the maximum absorbance wavelength by UV spectroscopy
[6] = biological target: T1, Protein phosphatase EYA2 (Homo sapiens) (UniProt O00167); experiment: Inhibition of GST-fused human Eya2 ED (253 to 538 residues) expressed in Escherichia coli at […] pre-incubated for 10 mins followed by OMFP substrate addition and further incubated for 30 mins by fluorescence based assay
T1 sequence (whole entry): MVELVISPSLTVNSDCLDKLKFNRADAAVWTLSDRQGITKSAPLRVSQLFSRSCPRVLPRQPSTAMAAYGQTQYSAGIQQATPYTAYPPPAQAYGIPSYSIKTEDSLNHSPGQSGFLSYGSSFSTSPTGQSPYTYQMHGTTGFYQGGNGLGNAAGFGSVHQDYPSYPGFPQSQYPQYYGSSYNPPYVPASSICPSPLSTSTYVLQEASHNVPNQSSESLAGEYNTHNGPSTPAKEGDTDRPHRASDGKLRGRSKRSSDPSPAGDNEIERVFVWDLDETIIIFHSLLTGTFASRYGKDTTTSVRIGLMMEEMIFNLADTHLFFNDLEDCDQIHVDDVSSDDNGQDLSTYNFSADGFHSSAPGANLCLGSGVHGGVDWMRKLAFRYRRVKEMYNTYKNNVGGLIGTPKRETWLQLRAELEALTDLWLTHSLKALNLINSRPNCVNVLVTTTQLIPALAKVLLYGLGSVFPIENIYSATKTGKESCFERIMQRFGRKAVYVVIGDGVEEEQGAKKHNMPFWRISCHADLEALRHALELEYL

[7] = Binding affinity to Mg2+ ion in acetonitrile assessed as induction of shift in the maximum absorbance wavelength at 25 uM by UV spectroscopy

O=C(N/N=C/c1ccc(Sc2ccccn2)o1)c1cccc(F)c1
Activity [1]: inactive | Activity [2]: inactive | Activity [3]: inactive | Activity [4]: -0.6 ppm | Activity [5]: Dose-dependent effect

c1cnc2c(c1)ccc1cccnc12
inhibition [6]: inactive

C=C1[C@@H](O)[C@@H]2O[C@@]3(CC[C@H](/C=C/[C@@H](C)[C@@H]4CC(C)=C[C@@]5(O[C@H](C[C@@](C)(O)C(=O)O)CC[C@H]5O)O4)O3)CC[C@H]2O[C@@H]1[C@@H](O)C[C@H](C)[C@H]1O[C@@]2(CCCCO2)CC[C@H]1C
inhibition [6]: inactive

Cc1ccccc1C(=O)N/N=C/c1ccc(Sc2ccccn2)o1
Activity [7]: Active

N[C@@H](Cc1ccccc1)C(=O)O
inhibition [6]: inactive

Source: ChEMBL document CHEMBL4421733, “Inhibitors of eya2” (2012)
